The results in this text go back to patent publication US11053230B2, “3-hydroxy-imidazolidin-4-one compounds as inhibitors of indoleamine 2,3-dioxygenase” (Netherlands Translational Research Center B.V., priority 2017, dated 2021).

Several values for one entry are separate records, joined by “and”; a condition that tells them apart may be missing. Equal entries are not always repeated. A value given as a limit tells only on which side of the number the result lay.

The assay addresses T1, IDO1 (Homo sapiens, UniProt P14902).
T1 construct: Recombinant full-length IDO1 (Seegers, N., et al.) and all other assay components were diluted in IDO1 reaction buffer; made in house
Kind of assay: Biochemical IDO1 assay (NFK GreenScreen). The following applies: NFK GreenScreen; 25 nM IDO1, 100 μM L-tryptophan; read-out: IC50, inhibitory potency on IDO1. The protocol:
Inhibition of IDO1 activity can be measured by determining the enzymatic conversion of L-tryptophan into N-formylkynurenine (NFK) in a reaction mixture containing IDO1 and test compound. The formation of NFK can be detected directly by, for instance, high-performance liquid chromatography (HPLC) methods, or by intrinsic fluorescence.
Compounds were serially diluted in dimethylsulfoxide (DMSO) and finally in IDO1 reaction buffer, consisting of 50 mM NaH2PO4, pH7.0, supplemented with 0.05% Tween-20 (cat. No. P7949; Sigma Aldrich) and 1% glycerol. Recombinant full-length IDO1 (Seegers, N., et al.) and all other assay components were diluted in IDO1 reaction buffer. […] Subsequently, 10 μl of 0.4 mM of the substrate L-tryptophan was added, i.e., the final concentration of L-tryptophan was 100 μM. The DMSO concentration in the assay was 0.3%. […] Incubation was continued for 60 min at room temperature. Then, 10 μl of NFK Green™ (NTRC, Oss, The Netherlands) was added, the plate was sealed, and the reaction was developed for 3 hours at 37° C. To determine the production of N-formyl kynurenine (NFK), the seal was removed and fluorescence was read on an EnVision multimode reader (Perkin Elmer, Waltham, Mass., USA). IC50 were calculated using XLfit™ software (ID Business Solutions, Ltd., Surrey, U.K.).

T1 sequence (P14902 whole entry): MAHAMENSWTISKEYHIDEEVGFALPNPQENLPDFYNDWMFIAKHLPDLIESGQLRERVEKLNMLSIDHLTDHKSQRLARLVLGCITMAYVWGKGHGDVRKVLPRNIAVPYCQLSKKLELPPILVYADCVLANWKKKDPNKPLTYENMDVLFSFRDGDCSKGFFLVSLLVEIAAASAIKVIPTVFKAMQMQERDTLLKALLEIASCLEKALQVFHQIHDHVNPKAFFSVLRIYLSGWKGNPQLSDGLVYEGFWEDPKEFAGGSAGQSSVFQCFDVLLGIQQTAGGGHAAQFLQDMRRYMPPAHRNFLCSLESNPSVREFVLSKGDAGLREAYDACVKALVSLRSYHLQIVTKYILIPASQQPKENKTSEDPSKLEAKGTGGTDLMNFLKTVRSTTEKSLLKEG

With `O=C1CN(C(=O)c2cccnc2Cl)C(c2cc(Br)cs2)N1O` (centres unmarked) [Example 66, 2-(4-Bromo-2-thienyl)-1-(2-chloropyridine-3-carbonyl)-3-hydroxy-imidazolidin-4-one], the IC50 was no more than 1000 nM.

With `O=C1CN(C(=O)C2CCCCC2)C(c2cc(Br)cs2)N1O` (centres unmarked) [Example 67, 2-(4-Bromo-2-thienyl)-1-(cyclohexanecarbonyl)-3-hydroxy-imidazolidin-4-one], the IC50 is ≤ 5000 nM and 1000 to 5000 nM.

`O=C1CN(C(=O)c2ccc(Cl)cc2Cl)C(c2cc(Br)cs2)N1O` (centres unmarked) [Example 68, 2-(4-Bromo-2-thienyl)-1-(2,4-dichlorobenzoyl)-3-hydroxy-imidazolidin-4-one]: the IC50 was ≤ 5000 nM and 1000 to 5000 nM.

Take `O=C1CN(C(=O)c2cccc(Cl)c2Cl)C(c2cc(Br)cs2)N1O` (centres unmarked) [Example 69, 2-(4-Bromo-2-thienyl)-1-(2,3-dichlorobenzoyl)-3-hydroxy-imidazolidin-4-one]: the IC50 was no more than 1000 nM.

`CS(=O)(=O)c1ccc(-c2ccc(C(=O)N3CC(=O)N(O)C3c3cc(Br)cs3)cc2)cc1` (centres unmarked) [Example 71, 2-(4-Bromo-2-thienyl)-3-hydroxy-1-[4-(4-methylsulfonylphenyl)benzoyl]imidazolidin-4-one]: the IC50 is ≤ 5000 nM and 1000 to 5000 nM.

With `O=C1CN(C(=O)c2ccncc2F)C(c2cc(Br)cs2)N1O` (centres unmarked) [Example 73, 2-(4-Bromo-2-thienyl)-1-(3-fluoropyridine-4-carbonyl)-3-hydroxy-imidazolidin-4-one], the 50% inhibitory concentration (IC50) is no more than 1000 nM.

Take `O=C1CN(C(=O)c2c(F)ccc(Br)c2F)C(c2cc(Br)cs2)N1O` (centres unmarked) [Example 74, 1-(3-Bromo-2,6-difluoro-benzoyl)-2-(4-bromo-2-thienyl)-3-hydroxy-imidazolidin-4-one]: the IC50 was no more than 1000 nM.

Consider `COc1ccc(F)c(C(=O)N2CC(=O)N(O)C2c2cc(Br)cs2)c1F` (centres unmarked) [Example 75, 2-(4-Bromo-2-thienyl)-1-(2,6-difluoro-3-methoxy-benzoyl)-3-hydroxy-imidazolidin-4-one], for which the IC50 was no more than 1000 nM.

For the molecule `O=C1CN(C(=O)c2c(F)ccc(C(F)(F)F)c2F)C(c2cc(Br)cs2)N1O` (centres unmarked) [Example 76, 2-(4-Bromo-2-thienyl)-1-[2,6-difluoro-3-(trifluoromethyl)benzoyl]-3-hydroxy-imidazolidin-4-one], the IC50 was no more than 1000 nM.

As to `Cc1ccc(F)c(C(=O)N2CC(=O)N(O)C2c2cc(Br)cs2)c1F` (centres unmarked) [Example 77, 2-(4-Bromo-2-thienyl)-1-(2,6-difluoro-3-methyl-benzoyl)-3-hydroxy-imidazolidin-4-one], the IC50 was no more than 1000 nM.

With `O=C1CN(C(=O)c2c(F)cc(C#CC3CCCCC3)cc2F)C(c2cc(Br)cs2)N1O` (centres unmarked) [Example 78, 2-(4-Bromo-2-thienyl)-1-[4-(2-cyclohexylethynyl)-2,6-difluoro-benzoyl]-3-hydroxy-imidazolidin-4-one], the IC50 was no more than 1000 nM.

On to `NCC#Cc1cc(F)c(C(=O)N2CC(=O)N(O)C2c2cc(Br)cs2)c(F)c1` (centres unmarked) [Example 79, 1-[4-(3-Aminoprop-1-ynyl)-2,6-difluoro-benzoyl]-2-(4-bromo-2-thienyl)-3-hydroxy-imidazolidin-4-one], for which the IC50 is no more than 1000 nM.

For `NS(=O)(=O)NCC#Cc1cc(F)c(C(=O)N2CC(=O)N(O)C2c2cc(Br)cs2)c(F)c1` (centres unmarked) [Example 80, 2-(4-Bromo-2-thienyl)-1-[2,6-difluoro-4-[3-(sulfamoylamino)prop-1-ynyl]benzoyl]-3-hydroxy-4-oxo-imidazolidine], the IC50 is no more than 1000 nM.

Regarding `CC(C)(N)C#Cc1cc(F)c(C(=O)N2CC(=O)N(O)C2c2cc(Br)cs2)c(F)c1` (centres unmarked) [Example 81, 1-[4-(3-Amino-3-methyl-but-1-ynyl)-2,6-difluoro-benzoyl]-2-(4-bromo-2-thienyl)-3-hydroxy-imidazolidin-4-one], the IC50 is no more than 1000 nM.

In the case of `O=C1CN(C(=O)c2c(F)cc(C3CC3)cc2F)C(c2cc(Br)cs2)N1O` (centres unmarked) [Example 82, 2-(4-Bromo-2-thienyl)-1-(4-cyclopropyl-2,6-difluoro-benzoyl)-3-hydroxy-imidazolidin-4-one], the IC50 is no more than 1000 nM.

For the molecule `C=Cc1cc(F)c(C(=O)N2CC(=O)N(O)C2c2cc(Br)cs2)c(F)c1` (centres unmarked) [Example 83, 2-(4-Bromo-2-thienyl)-1-(2,6-difluoro-4-vinyl-benzoyl)-3-hydroxy-imidazolidin-4-one], the IC50 is no more than 1000 nM.

`Cc1cc(F)c(C(=O)N2CC(=O)N(O)C2c2cc(Br)cs2)c(F)c1` (centres unmarked) [Example 84, 2-(4-Bromo-2-thienyl)-1-(2,6-difluoro-4-methyl-benzoyl)-3-hydroxy-imidazolidin-4-one]: the concentration for half-maximal inhibition (IC50) is no more than 1000 nM.

Turning to `O=C1CN(C(=O)c2c(F)cc(-c3ccccc3)cc2F)C(c2cc(Br)cs2)N1O` (centres unmarked) [Example 85, 2-(4-Bromo-2-thienyl)-1-(2,6-difluoro-4-phenyl-benzoyl)-3-hydroxy-imidazolidin-4-one], the IC50 was no more than 1000 nM.

As for `Cn1cc(-c2cc(F)c(C(=O)N3CC(=O)N(O)C3c3cc(Br)cs3)c(F)c2)cn1` (centres unmarked) [Example 86, 2-(4-Bromo-2-thienyl)-1-[2,6-difluoro-4-(1-methylpyrazol-4-yl)benzoyl]-3-hydroxy-imidazolidin-4-one], the IC50 is no more than 1000 nM.

For the molecule `O=C1CN(C(=O)c2c(F)cc(-c3cccs3)cc2F)C(c2cc(Br)cs2)N1O` (centres unmarked) [Example 87, 2-(4-Bromo-2-thienyl)-1-[2,6-difluoro-4-(2-thienyl)benzoyl]-3-hydroxy-imidazolidin-4-one], the IC50 is no more than 1000 nM.

For the molecule `O=C1CN(C(=O)c2c(F)cc(-c3cccnc3)cc2F)C(c2cc(Br)cs2)N1O` (centres unmarked) [Example 88, 2-(4-Bromo-2-thienyl)-1-[2,6-difluoro-4-(3-pyridyl)benzoyl]-3-hydroxy-imidazolidin-4-one], the IC50 is no more than 1000 nM.

In the case of `NC1(C#Cc2cc(F)c(C(=O)N3CC(=O)N(O)C3c3cc(Br)cs3)c(F)c2)CC1` (centres unmarked) [Example 89, 1-[4-[2-(1-Aminocyclopropyl)ethynyl]-2,6-difluoro-benzoyl]-2-(4-bromo-2-thienyl)-3-hydroxy-imidazolidin-4-one], the IC50 was no more than 1000 nM.

For the molecule `NS(=O)(=O)NC1(C#Cc2cc(F)c(C(=O)N3CC(=O)N(O)C3c3cc(Br)cs3)c(F)c2)CC1` (centres unmarked) [Example 90, 2-(4-Bromo-2-thienyl)-1-[2,6-difluoro-4-[2-[1-(sulfamoylamino)cyclopropyl]ethynyl]benzoyl]-3-hydroxy-4-oxo-imidazolidine], the 50% inhibitory concentration (IC50) is no more than 1000 nM.

As for `CS(=O)(=O)NCc1cc(F)c(C(=O)N2CC(=O)N(O)C2c2cc(Br)cs2)c(F)c1` (centres unmarked) [Example 91, N-[[4-[2-(4-Bromo-2-thienyl)-3-hydroxy-4-oxo-imidazolidine-1-carbonyl]-3,5-difluoro-phenyl]methyl]methanesulfonamide], the IC50 is no more than 1000 nM.

Regarding `O=C1CN(C(=O)c2c(F)cc(CCC3CCCCC3)cc2F)C(c2cc(Br)cs2)N1O` (centres unmarked) [Example 92, 2-(4-Bromo-2-thienyl)-1-[4-(2-cyclohexylethyl)-2,6-difluoro-benzoyl]-3-hydroxy-imidazolidin-4-one], the IC50 is ≤ 5000 nM and 1000 to 5000 nM.

Regarding `NS(=O)(=O)NCCCc1cc(F)c(C(=O)N2CC(=O)N(O)C2c2cc(Br)cs2)c(F)c1` (centres unmarked) [Example 93, 2-(4-Bromo-2-thienyl)-1-[2,6-difluoro-4-[3-(sulfamoylamino)propyl]benzoyl]-3-hydroxy-4-oxo-imidazolidine], the IC50 was no more than 1000 nM.

For orientation: IC50 means the concentration that inhibits the measured activity by half.
